Reference: ChEMBL document CHEMBL1158156, “Structure-based design, synthesis, and biological evaluation of 1,1-dioxoisothiazole and benzo[b]thiophene-1,1-dioxide derivatives as novel inhibitors of hepatitis C virus NS5B polymerase” (Bioorg Med Chem Lett, 2008)

Experiments:
Hepatitis C virus [1] = assay: Inhibition of HCV 1b NS5B polymerase; design: species or system Hepatitis C virus subtype 1b
[2] = Cytotoxicity against human Huh7/C24 cells after 72 hrs; assay type: cell-based, Huh-7
[3] = Metabolic stability in human liver microsomes assessed as half life
Hepatitis C virus [4] = assay: Antiviral activity against HCV 1b infected in human Huh7/C24 cells after 72 hrs by replicon assay; assay type: functional, organism-based, Hepacivirus hominis; conditions: genotype 1b, Huh-7, 72 h
[5] = Plasma concentration in cynomolgus monkey at 1 mg/kg, po administered as single dose after 12 hrs; assay type: ADME, organism-based, Macaca fascicularis; design: dose 1 mg/kg, route oral
[6] = Apparent permeability from basolateral to apical side in human Caco-2 cells; assay type: ADME, cell-based
[7] = Ratio of permeability from basolateral to apical over apical to basolateral side in human Caco-2 cells
[8] = Apparent permeability from apical to basolateral side in human Caco-2 cells; assay type: ADME, cell-based
[9] = AUC at 24 hrs in cynomolgus monkey at 1 mg/kg, po administered as single dose; assay type: ADME, organism-based, Macaca fascicularis; design: time < 24 hr, dose 1 mg/kg, route oral; conditions: plasma
[10] = Oral bioavailability in cynomolgus monkey at 1 mg/kg administered as single dose; assay type: ADME, organism-based, Macaca fascicularis; conditions: in vivo
[11] = Apparent permeability across human Caco-2 cells

Row | Structure (SMILES) | IC50 (Hepatitis C virus [1]) [µM] | CC50 at 72 h [2] [µM] | half-life ([3]; liver microsomes) [h] | EC50 (Hepatitis C virus [4]) [µM] | also measured
1 | CCOc1cccc2c1S(=O)(=O)N=C2C1=C(O)[C@H](C(C)C)N(CCC(C)(C)C)C1=O | 9 | > 33 |  |  | 
2 | CCOc1cccc2c1S(=O)(=O)N=C2C1=C(O)[C@H](CC(C)C)N(CCC(C)(C)C)C1=O | 5.1 | > 33 |  |  | 
3 | CN(Cc1cccc2c1S(=O)(=O)C=C2C1=C(O)[C@H](C(C)(C)C)N(CCC(C)(C)C)C1=O)S(C)(=O)=O | 0.92 | > 33 | > 1 | 5.8 | 
4 | CN(Cc1cccc2c1S(=O)(=O)N=C2C1=C(O)C(C)(C)N(Cc2ccc(F)c(Cl)c2)C1=O)S(C)(=O)=O | 0.46 | > 33 | > 1 |  | 
5 | CC(C)[C@@]1(C)C(O)=C(C2=CS(=O)(=O)c3c(CN(C)S(C)(=O)=O)cccc32)C(=O)N1CCC(C)(C)C | 13 | > 33 | > 1 |  | 
6 | CCOc1cccc2c1S(=O)(=O)N=C2C1=C(O)C(c2cccs2)N(CCC(C)(C)C)C1=O (racemic) | 2.9 | > 33 |  |  | 
7 | CC(C)(C)[C@H]1C(O)=C(C2=NS(=O)(=O)c3c(OCc4ncon4)cccc32)C(=O)N1Cc1ccc(F)c(Cl)c1 | 0.18 | > 33 | > 1 | 1.8 | 
8 | CC(C)(C)[C@H]1C(O)=C(C2=NS(=O)(=O)c3c(OCC(N)=O)cccc32)C(=O)N1Cc1ccc(F)c(Cl)c1 | 0.033 | > 33 | > 1 | 7.9 | 
9 | CC(C)[C@H]1C(O)=C(C2=NS(=O)(=O)c3ccccc32)C(=O)N1Cc1ccccc1 |  | > 33 | > 1 | 24 | 
10 | CC(C)[C@H]1C(O)=C(C2=NS(=O)(=O)c3c(OCc4ncon4)cccc32)C(=O)N1Cc1ccccc1 | 0.35 | > 33 | > 1 | 15 | 
11 | CC(C)(C)CCN1C(=O)C(C2=NS(=O)(=O)c3c(CNS(C)(=O)=O)cccc32)=C(O)[C@@H]1C(C)(C)C | 0.018 | > 33 |  | 0.35 | half-life ([3]; microsomes): > 1 h
12 | CC(C)[C@H]1C(O)=C(C2=NS(=O)(=O)c3c(OCC(N)=O)cccc32)C(=O)N1Cc1ccccc1 | 0.52 | > 33 | > 1 | 88 | 
13 | CN(Cc1cccc2c1S(=O)(=O)N=C2C1=C(O)C2(CC2)N(Cc2ccc(F)c(Cl)c2)C1=O)S(C)(=O)=O | 0.62 | > 33 | > 1 |  | 
14 | CC(C)(C)CCN1C(=O)C(C2=CS(=O)(=O)c3c(CNS(C)(=O)=O)cccc32)=C(O)[C@@H]1C(C)(C)C | 0.24 | > 33 | > 1 | 6.4 | 
15 | CC[C@@]1(C)C(O)=C(C2=NS(=O)(=O)c3c(CN(C)S(C)(=O)=O)cccc32)C(=O)N1Cc1ccc(F)c(Cl)c1 | 0.41 | > 33 |  |  | half-life ([3]; microsomes): > 1 h
16 | CCOc1cccc2c1S(=O)(=O)N=C2C1=C(O)[C@H](C(C)(C)C)N(CCC(C)(C)C)C1=O | 1.5 | > 33 | > 1 |  | 
17 | CC(C)[C@H]1C(O)=C(C2=NS(=O)(=O)c3c(OCCC(N)=O)cccc32)C(=O)N1Cc1ccccc1 | 1.2 | > 33 |  | 100 | 
18 | CC(C)(C)CCN1C(=O)C(C2=NS(=O)(=O)c3ccccc32)=C(O)[C@@H]1C(C)(C)C | 0.42 | > 33 | 0.167 | 4.3 | concentration at 12 h [5]: 5 ng/mL; Papp B→A [6]: 19 ×10⁻⁶ cm/s; efflux ratio [7]: 2; Papp A→B [8]: 9.9 ×10⁻⁶ cm/s; AUC at 24 h [9]: 4680 ng·h/mL

Row | Structure (SMILES) | IC50 (Hepatitis C virus [1]) [µM] | CC50 at 72 h [2] [µM] | half-life ([3]; liver microsomes) [h] | EC50 (Hepatitis C virus [4]) [µM] | also measured
19 | CC(C)[C@H]1C(O)=C(C2=NS(=O)(=O)c3c(OCC#N)cccc32)C(=O)N1Cc1ccccc1 | 1.6 | > 33 | > 1 | 12 | 
20 | CS(=O)(=O)NCc1cccc2c1S(=O)(=O)N=C2C1=C(O)C2(CC2)N(Cc2ccc(F)c(Cl)c2)C1=O | 0.13 | > 33 |  | > 33 | half-life ([3]; microsomes): > 1 h
21 | CC(C)(C)CCN1C(=O)C(C2=NS(=O)(=O)c3c(OCC(N)=O)cccc32)=C(O)[C@@H]1C(C)(C)C | 0.2 | > 33 | 0.8 | 11 | 
22 | CC(C)(C)CCN1C(=O)C(C2=NS(=O)(=O)c3c(CCS(C)(=O)=O)cccc32)=C(O)[C@@H]1C(C)(C)C | 0.045 | > 33 | > 1 | 2.6 | 
23 | CC(C)(C)CCN1C(=O)C(C2=NS(=O)(=O)c3c(OCc4ncon4)cccc32)=C(O)[C@@H]1C(C)(C)C | 0.65 | > 33 | 0.733 | 2 | 
24 | CN(Cc1cccc2c1S(=O)(=O)N=C2C1=C(O)[C@H](C(C)(C)C)N(Cc2ccc(F)c(Cl)c2)C1=O)S(C)(=O)=O | 0.023 | > 33 | > 1 | 0.09 | concentration at 12 h [5]: 3.1 ng/mL; Papp B→A [6]: 29 ×10⁻⁶ cm/s; efflux ratio [7]: 132; bioavailability [10]: 4%; Papp A→B [8]: 0.2 ×10⁻⁶ cm/s; AUC at 24 h [9]: 193 ng·h/mL
25 | CC(C)(C)[C@H]1C(O)=C(C2=NS(=O)(=O)c3c(OCC#N)cccc32)C(=O)N1Cc1ccc(F)c(Cl)c1 | 0.07 | > 33 | > 1 | 0.7 | 
26 | CCOc1cccc2c1S(=O)(=O)N=C2C1=C(O)[C@H](C(C)(C)C)N(Cc2ccc(F)c(Cl)c2)C1=O | 0.76 | > 33 |  |  | half-life ([3]; microsomes): > 1 h
27 | CC(C)(C)[C@H]1C(O)=C(C2=NS(=O)(=O)c3c(CNS(C)(=O)=O)cccc32)C(=O)N1Cc1ccc(F)c(Cl)c1 | < 0.01 | > 33 | > 1 | 0.07 | concentration at 12 h [5]: 0.5 ng/mL; Papp B→A [6]: 15 ×10⁻⁶ cm/s; efflux ratio [7]: 150; bioavailability [10]: 1%; Papp A→B [8]: 0.1 ×10⁻⁶ cm/s; AUC at 24 h [9]: 38 ng·h/mL
28 | CC(C)NCC(O)COc1cccc2ccccc12 (configuration not stated) [PROPRANOLOL] |  |  |  |  | Papp [11]: 10 ×10⁻⁶ cm/s
29 | CCOc1cccc2c1S(=O)(=O)N=C2C1=C(O)[C@H](C2CCCCC2)N(CCC(C)(C)C)C1=O | 4 | > 33 |  |  | 
30 | CC(C)[C@H]1C(O)=C(C2=NS(=O)(=O)c3c(OCC(=O)C(C)(C)C)cccc32)C(=O)N1Cc1ccccc1 | 21 | > 33 |  | > 33 | 
31 | CC(C)[C@H]1C(O)=C(C2=NS(=O)(=O)c3c(OCC(=O)N4CCOCC4)cccc32)C(=O)N1Cc1ccccc1 | 3.2 | > 33 | > 1 | > 33 | 
32 | CC(C)(C)[C@H]1C(O)=C(C2=NS(=O)(=O)c3cc(NS(C)(=O)=O)ccc32)C(=O)N1Cc1ccc(F)c(Cl)c1 | 0.094 | > 33 | > 1 | 13 | 
33 | CCOc1cccc2c1S(=O)(=O)N=C2C1=C(O)[C@H](C(C)C)N(Cc2ccccc2)C1=O | 3.6 | > 33 | > 1 | 18 | 
34 | CC(C)[C@H]1C(O)=C(C2=NS(=O)(=O)c3c(O)cccc32)C(=O)N1Cc1ccccc1 | 0.47 | > 33 | > 1 | 47 | 
35 | CCOc1cccc2c1S(=O)(=O)N=C2C1=C(O)[C@H](C(C)(C)C)N(Cc2cccc(Cl)c2)C1=O | 1.6 | > 33 |  |  | 
36 | CCOc1cccc2c1S(=O)(=O)N=C2C1=C(O)[C@H](C(C)(C)C)N(CCC(C)C)C1=O | 5.1 | > 33 |  |  | 
